Experimental data as given in US11234970B2, “Parasitic pest control agents comprising pyridone compounds as active ingredients and methods for using the same” (MITSUI CHEMICALS AGRO, INC., priority 2017, dated 2022).

What follows are compounds tested on heartworm microfillaria (assay: Heartworm microfillaria mortality test (Test Example 1)). Conditions: final concentration 100 μg/ml in culture broth; after culturing for 7 days; microfillaria collected from infected dogs.
Assay type: in vitro
Method: Compound Nos. 32, 53, 54 and 55 were each dissolved in dimethyl sulfoxide to 10 mg/ml. These dimethyl sulfoxide solutions were diluted 100-fold to a final concentration of 100 μg/ml with the culture broth containing heartworm microfillaria collected from dogs infected with heartworm. The mortality rate of heartworm microfillaria was investigated after culturing for 7 days.
As a result, the mortality rate was 100% in each of the treatment groups.

Row | SMILES | mortality rate of heartworm microfillaria [%]
1 | CCn1c(-c2c(F)cccc2F)c(-c2cc(OC)cc(OC)c2Cl)ccc1=O [Compound 32] | 100
2 | CCn1c(-c2c(F)cccc2F)c(-c2cc(OC)ccc2Cl)ccc1=O [Compound 53, 5-(2-chloro-5-methoxyphenyl)-6-(2,6-difluorophenyl)-1-ethylpyridine-2(1H)-one] | 100
3 | CCn1c(-c2c(F)cccc2F)c(-c2cc(OC)ccc2Cl)cc(Cl)c1=O [Compound 54, 3-chloro-5-(2-chloro-5-methoxyphenyl)-6-(2,6-difluorophenyl)-1-ethylpyridine-2(1H)-one] | 100
4 | CCn1c(-c2c(F)cccc2F)c(-c2cc(OC)ccc2Cl)cc(Br)c1=O [Compound 55] | 100
